Data from US20040077728A1, “Retiferol derivatives and their use in the treatment of skin diseases or conditions associated with photodamage” (priority 2000, published 2004).

Assay: Calcium liability (tolerance test in mice)
Assay type: in vivo
Details: mice (25-30 g), daily subcutaneous administration for 4 consecutive days; dose giving zero weight gain over the 5-day treatment period
Description: Calcium Liability (Tolerance Test in Mice):
This test gives a global picture of calcemic liability. Profound changes in calcium homeostasis strongly affect the weight development of the animals. This parameter was used as a primary test for tolerance. Mice (25-30 g body weight) received daily subcutaneous administrations of the vitamin D derivative for 4 consecutive days. Body weight was registered just before and at the end of a 5-day treatment period. The “highest tolerated dose” (HTDsc) in mice is the dose which results in zero weight gain during this treatment period.

C=C1/C(=C\C=C2/CCC[C@]3(C)[C@@H]([C@H](C)CCCC(C)(C)O)CC[C@@H]23)C[C@@H](O)C[C@@H]1O [calcitriol]
HTDs.c. highest tolerated dose without weight loss: 1 µg/kg
